Results reported in US11931329B2, “Compositions and methods for treating anxiety-related disorders” (Yamo Pharmaceuticals LLC, priority 2019, dated 2024).

Legend:
Format in all cases: in vivo, human
[1] = test system: patients diagnosed with Autistic Spectrum Disorder and one or more of Social Anxiety Disorder and Generalized Anxiety Disorder; test: Double blinded, placebo controlled dose ranging study of L1-79 in autism: social anxiety symptoms (case studies); conditions: for SRS/DSM-5 Social Communication scale range after treatment: after 4 weeks on L1-79
Method: (§1) Study Title: A Double Blinded, Randomized, Placebo Controlled, Dose Ranging Study for the use of L1-79 in the Treatment of Autism
(§2) Study Design: Blinded, randomized, 4-arm, 4-week treatment period. Treatment arms consist of α-methyl-DL-tyrosine (i.e., L1-79) in doses of 100 mg, or 200 mg, or placebo tid.
(§3) Sample Size:N=30; randomized and 10 open label to 4 groups:
(§4) Study Population: Male subjects between the ages of 13 and 21 years of age, diagnosed with autism who that meet the entry criteria and who are able to complete standardized measures allowing them to participate in this study.
(§5) Major Inclusion Criteria: Males between 13 and 21 years of age, signed informed consent, normal clinical laboratory values, DSM-5 compliant diagnosis of autism spectrum disorder, confirmed by the Autistic Diagnosis Interview Review (ADIR), and by the Autism Diagnosis Observation Schedule (ADOS) score consistent with a diagnosis of autism. No more than one concomitant medication, stable concomitant medications for at least 2 weeks prior to enrollment and no planned changes in psychosocial interventions during the trial.
(§6) Major Exclusion Criteria: Any co-morbidities, including Fragile-X syndrome, epilepsy, Retts syndrome, ADHD, or other disease or syndrome aside from autism that requires treatment. Any other psychiatric disorder, or out of range lab values. DSM-5 diagnosis of schizophrenia, schizoaffective disorder, alcohol use disorder; active medical problems: unstable seizures (>2 in past month), significant physical illness;
(§7) Experimental Treatment: L1-79 at doses of 100 or 200 mg three times daily for 4 weeks.
(§8) Dosage and Administration: L1-79 or placebo, as randomized, were administered orally according to the regimen above.
(§9) Evaluation Schedule: Subjects were evaluated within one week prior to study accession, and weekly throughout the dosing period, and again 4 weeks after the cessation of treatment.
(§10) Study Endpoints: The primary end point was an assessment of the safety of L1-79 based upon reported adverse events and changes in baseline in physical examination parameters that included orthostatic blood pressure, clinical laboratory measures, and ECGs. Secondary endpoints will include the attending physicians assessment as quantified by the Clinical Global Impressions scale based upon changes from baseline in various psychometric tests, including the Vineland Adaptive Behavior Scale 2nd edition (VABS II, VABS) questionnaire, the Autism Diagnostic Observation Schedule (ADOS), the Aberrant Behavior Checklist-Community (ABC-C), the Spencer Anxiety Scale (SAS), the Repetitive Behavior Score-Revised (RBS-R), the Social Responsiveness Scale (SRS), as well as from their personal observations in the clinic, and from videographic information taken during ADOS testing (per this protocol) and anecdotally as provided by caregivers over the course of this study.
Social anxiety symptoms included one or more of fear associated with meeting and talking to people, avoidance of social situations that would elicit significant anxiety in the past, anxiety in anticipation of a social situation, and an inability to initiate conversation with others. The presence of the social anxiety symptoms was recorded at baseline using the Aberrant Behavior Checklist-Community, the Spence Children's Anxiety Scale, the Social Responsiveness Scale, and/or the Clinical Global Impression Scale and direct parent report.
All of the patients were receiving L1-79 100-200 mg three times a day. None of the patients in the Social Anxiety symptom improvement group were receiving medication for Social Anxiety Disorder

[2] = test system: ASD patient with obsessive thoughts and compulsive behaviors; test: Case study demonstrating reduction of obsessions and compulsions (SUBJECT); conditions: L1-79 100-200 mg three times per day
Excerpt: An ASD patient (SUBJECT) has a history of obsessive thoughts and compulsive behaviors that negatively impact their functioning. […]

[3] = test system: patients diagnosed with Autistic Spectrum Disorder and one or more of Obsessive Compulsive Disorder and Attention Deficit/Hyperactivity Disorder; test: Double blinded, placebo controlled dose ranging study of L1-79 in autism: obsessive-compulsive symptoms (case studies)
Method: as §1, §2, §3, §4, §5, §6, §7, §8, §9, §10
Obsessive-compulsive symptoms can include ritualistic and repetitive/restricted behaviors, and obsessive thinking make it difficult for the patient to complete a task or concentrate in a conversation.
All of the patients were receiving L1-79 100-200 mg three times a day. None of the patients in the OCD symptom improvement group were receiving medication for Obsessive Compulsive Disorder
Obsessive-compulsive symptoms were initially recorded at baseline, and at end of active treatment using the Repetitive Behavior Scale, the Spence Children's’ Anxiety Scale, the Social Responsiveness Scale, the Clinical Global Impression Scale and direct parent report.

## CC(N)(Cc1ccc(O)cc1)C(=O)O (racemic) [L1-79, α-methyl-DL-tyrosine]
[1]; ASD patients with SAD and/or GAD, L1-79 100-200 mg three times a day
  social-anxiety symptoms: reductions in social-anxiety symptoms
[1]; Subject 02-002, baseline 98%, L1-79 100-200 mg tid
  ABC-C Social Withdrawal after treatment: 75%
[1]; Subject 02-002, baseline Severe
  SRS/DSM-5 Social Communication scale range after treatment: Moderate
[1]; Subject 02-002, week 4
  CGI-I, Social Interaction and Communication: Much Improved
[1]; Subject 02-007, baseline 75%, week 4 of treatment
  ABC-C Social Withdrawal after treatment: < 40%
[1]; Subject 02-009, baseline 91%, week 4 of treatment with L1-79
  ABC-C Social Withdrawal after treatment: 63%
[1]; Subject 02-012, baseline 84%, L1-79 100-200 mg tid
  ABC-C Social Withdrawal after treatment: < 40%
[1]; Subject 02-012, baseline Moderately Ill
  CGI-Severity Score after treatment: Borderline Ill
[1]; Subject 02-012, baseline Severe
  SRS/DSM-5 Social Communication scale range after treatment: Within Normal Limits
[1]; Subject 02-012, week 4
  CGI-I, Social Interaction and Communication: Much Improved
[1]; Subject 02-014, L1-79 100-200 mg tid
  CGI-I, Social Interactions and Communication area: Much Improved
[1]; Subject 02-014, baseline Markedly Ill
  CGI-Severity score, Social Interaction area, after treatment: Moderately Ill
[1]; Subject 02-016, baseline Mildly Deficient
  SRS/DSM-5 Social Communication scale range after treatment: Within Normal Limits
[1]; Subject 02-016, baseline Mildly Ill
  CGI-Severity Score, Social Interaction and Communication, after treatment: Normal
[1]; Subject 02-016, week 4
  CGI-I, Social Interaction and Communication: Much Improved
[1]; Subject 02-022, week 4 of treatment with L1-79
  CGI-I, Social Interaction and Communication: Much Improved
[2]
  compulsive behaviors/routines: could be delayed or skipped
  obsessive thoughts: significant decrease in obsessive thoughts
  rigid and inflexible thinking: decrease in rigid and inflexible thinking
[3]; ASD patients with OCD and/or ADHD, L1-79 100-200 mg three times a day
  obsessive-compulsive symptoms: reductions in obsessive-compulsive symptoms
[3]; Subject 02-002, baseline 96 (Severe), after treatment Moderate, L1-79 100-200 mg tid
  SRS/DSM-5 Repetitive Behavior and Restrictive Interests score after treatment: 73
[3]; Subject 02-003, baseline Severe, week 4, L1-79 100-200 mg tid
  SRS/DSM-5 Repetitive Behavior and Restrictive Interests range after treatment: Moderate
[3]; Subject 02-004, L1-79 100-200 mg tid
  CGI-I, Stereotypic and Restricted Interests section: Much Improved
[3]; Subject 02-007, baseline 3.0 (anxiety disordered children), 0 = normal/no OCD, L1-79 100-200 mg tid
  Spence Children's Anxiety Scale OCD score after treatment: 0
[3]; Subject 02-007, baseline Moderate, L1-79 100-200 mg tid
  SRS/DSM-5 subscale Repetitive Behaviors and Restricted Interests range after treatment: Within Normal Limits
[3]; Subject 02-012, L1-79 100-200 mg tid
  CGI-I score (OCD symptoms): Much Improved
[3]; Subject 02-012, baseline 80 (Severe), after treatment Within Normal Limits, L1-79 100-200 mg tid
  SRS/DSM-5 Repetitive Behavior and Restrictive Interests score after treatment: 46
[3]; Subject 02-16, baseline 65 (Mild), after treatment Within Normal Limits, L1-79 100-200 mg tid
  SRS/DSM-5 Repetitive Behavior and Restrictive Interests score after treatment: 46
[3]; Subject 02-16, baseline Mildly Ill, L1-79 100-200 mg tid
  CGI-Severity scale, Stereotyped Behaviors and Restricted Interests, after treatment: Normal
[3]; Subject 02-020, baseline 85 (Severe), after treatment Moderate, L1-79 100-200 mg tid
  SRS/DSM-5 Repetitive Behavior and Restrictive Interests score after treatment: 73
[3]; one patient who could talk only about their obsessive interest at baseline, after 4 weeks on active drug
  obsessive interest / preoccupation in conversation: able to have conversations about things of interest to others
[3]; one patient with self-injurious compulsive behaviors at baseline, after 3 weeks on active drug
  self-injurious compulsive behaviors: completely stopped self-injury
[3]; patients with OCD or SAD in the L1-79 autism study, 100 or 200 mg tid, 4 weeks, oral
  anxiety-related symptoms: improved anxiety-related symptoms
